Test results from the supplement of paper PMC11061612.

How the values were obtained:
Capivasertib = compound: C1CN(CCC1(C(=O)N[C@@H](CCO)C2=CC=C(C=C2)Cl)N)C3=NC=NC4=C3C=CN4 [Capivasertib]; conditions: max 10 µM
Procedure, shortened: (§1)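 After 24 hours at 37°C and 5% CO2 in 1536-well plates holding 7.5 μl of DMEM/F12 or RPMI with 10% FBS, cancer cell lines were dosed for 72 hours, with final DMSO typically 0.2%. Viability came from CellTiter-Glo 2.0 luminescence, scaled between the means of blank wells and DMSO wells. A non-linear mixed effects model fitted a two-parameter logistic curve to each dose response to give the single-agent IC50.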

AZD1775 = compound: C=CCn1c(=O)c2cnc(Nc3ccc(N4CCN(C)CC4)cc3)nc2n1-c1cccc(C(C)(C)O)n1 [AZD1775]; conditions: max 3 µM
Procedure, shortened: as §1

Trametinib = compound: CC(=O)Nc1cccc(-n2c(=O)n(C3CC3)c(=O)c3c(Nc4ccc(I)cc4F)n(C)c(=O)c(C)c32)c1 [Trametinib]; conditions: max 1 µM
Procedure, shortened: as §1

Palbociclib = compound: CC(=O)c1c(C)c2cnc(Nc3ccc(N4CCNCC4)cn3)nc2n(C2CCCC2)c1=O [Palbociclib]; conditions: max 10 µM
Procedure, shortened: as §1

AZD1390 = compound: CC(C)n1c(=O)n(C)c2cnc3cc(F)c(-c4ccc(OCCCN5CCCCC5)nc4)cc3c21 [AZD1390]; conditions: max 0.3 µM
Procedure, shortened: as §1

Venetoclax = compound: CC1(C)CCC(CN2CCN(c3ccc(C(=O)NS(=O)(=O)c4ccc(NCC5CCOCC5)c([N+](=O)[O-])c4)c(Oc4cnc5[nH]ccc5c4)c3)CC2)=C(c2ccc(Cl)cc2)C1 [Venetoclax]; conditions: max 1 µM
Procedure, shortened: as §1

Dasatinib = compound: CC1=C(C(=CC=C1)Cl)NC(=O)C2=CN=C(S2)NC3=CC(=NC(=N3)C)N4CCN(CC4)CCO [Dasatinib]; conditions: max 2 µM
Procedure, shortened: as §1

SG3199 = compound: CC1=CN2[C@@H](C1)C=NC3=CC(=C(C=C3C2=O)OC)OCCCCCOC4=C(C=C5C(=C4)N=C[C@@H]6CC(=CN6C5=O)C)OC [SG3199]; conditions: max 0.001 µM
Procedure, shortened: as §1

AZD2811 = compound: CCN(CCO)CCCOc1ccc2c(Nc3cc(CC(=O)Nc4cccc(F)c4)[nH]n3)ncnc2c1 [AZD2811]; conditions: max 1 µM
Procedure, shortened: as §1

SN-38 = compound: CCc1c2c(nc3ccc(O)cc13)-c1cc3c(c(=O)n1C2)COC(=O)[C@]3(O)CC [SN-38]; conditions: max 0.3 µM
Procedure, shortened: as §1

AZD0156 = compound: CN(C)CCCOc1ccc(-c2ccc3ncc4c(c3c2)n(C2CCOCC2)c(=O)n4C)cn1 [AZD0156]; conditions: max 3 µM
Procedure, shortened: as §1

AZD4320 = compound: CN(CC[C@H](CSC1=CC=CC=C1)NC2=C(C=C(C=C2)S(=O)(=O)NC(=O)C3=CC=C(C=C3)N4CCC(CC4)[C@H](C5=CC=CC=C5C6=CC=C(C=C6)Cl)O)S(=O)(=O)C(F)(F)F)CCO [AZD4320]; conditions: max 1 µM
Procedure, shortened: as §1

Alisertib = compound: COc1cc(Nc2ncc3c(n2)-c2ccc(Cl)cc2C(c2c(F)cccc2OC)=NC3)ccc1C(=O)O [Alisertib]; conditions: max 10 µM
Procedure, shortened: as §1

Gefitinib = compound: COc1cc2ncnc(Nc3ccc(F)c(Cl)c3)c2cc1OCCCN1CCOCC1 [Gefitinib]; conditions: max 10 µM
Procedure, shortened: as §1

Prexasertib = compound: COc1cccc(OCCCN)c1-c1cc(Nc2cnc(C#N)cn2)n[nH]1 [Prexasertib]; conditions: max 1 µM
Procedure, shortened: as §1

Doxorubicin = compound: COc1cccc2c1C(=O)c1c(O)c3c(c(O)c1C2=O)C[C@@](O)(C(=O)CO)C[C@@H]3O[C@H]1C[C@H](N)[C@H](O)[C@H](C)O1 [Doxorubicin]; conditions: max 1 µM
Procedure, shortened: as §1

AZD5153 = compound: COc1nnc2ccc(N3CCC(c4ccc(OCCN5CCN(C)C(=O)[C@H]5C)cc4)CC3)nn12 [AZD5153]; conditions: max 1 µM
Procedure, shortened: as §1

Lapatinib = compound: CS(=O)(=O)CCNCc1ccc(-c2ccc3ncnc(Nc4ccc(OCc5cccc(F)c5)c(Cl)c4)c3c2)o1 [Lapatinib]; conditions: max 10 µM
Procedure, shortened: as §1

AZD8186 = compound: C[C@@H](Nc1cc(F)cc(F)c1)c1cc(C(=O)N(C)C)cc2c(=O)cc(N3CCOCC3)oc12 [AZD8186]
Procedure, shortened: as §1

Crizotinib = compound: C[C@@H](Oc1cc(-c2cnn(C3CCNCC3)c2)cnc1N)c1c(Cl)ccc(F)c1Cl [Crizotinib]; conditions: max 10 µM
Procedure, shortened: as §1

Savolitinib = compound: C[C@@H](c1ccc2nccn2c1)n1nnc2ncc(-c3cnn(C)c3)nc21 [Savolitinib]; conditions: max 1 µM
Procedure, shortened: as §1

AZD6738 = compound: C[C@@H]1COCCN1C2=NC(=NC(=C2)C3(CC3)[S@](=N)(=O)C)C4=C5C=CNC5=NC=C4 [AZD6738]; conditions: max 10 µM
Procedure, shortened: as §1

AZD5991 = compound: Cc1c2c(nn1C)CSCc1cc(n(C)n1)CSc1cc(c3ccccc3c1)OCCCc1c(C(=O)O)n(C)c3c-2c(Cl)ccc13 [AZD5991]; conditions: max 1 µM
Procedure, shortened: as §1

AZD7648 = compound: Cc1cc2ncnn2cc1Nc1ncc2c(n1)n(C1CCOCC1)c(=O)n2C [AZD7648]; conditions: max 10 µM
Procedure, shortened: as §1

Taselisib = compound: Cc1nc(-c2cn3c(n2)-c2ccc(-c4cnn(C(C)(C)C(N)=O)c4)cc2OCC3)n(C(C)C)n1 [Taselisib]; conditions: max 10 µM
Procedure, shortened: as §1

Selumetinib = compound: Cn1cnc2c(F)c(Nc3ccc(Br)cc3Cl)c(C(=O)NOCCO)cc21 [Selumetinib]; conditions: max 10 µM
Procedure, shortened: as §1

Olaparib = compound: O=C(c1cc(Cc2n[nH]c(=O)c3ccccc23)ccc1F)N1CCN(C(=O)C2CC2)CC1 [Olaparib]; conditions: max 10 µM
Procedure, shortened: as §1

Carboplatin = compound: C1CC(C1)(C(=O)[O-])C(=O)[O-].N.N.[Pt+2] [Carboplatin]; conditions: max 10 µM
Procedure, shortened: as §1

AZD5363 = compound: C1CN(CCC1(C(=O)N[C@@H](CCO)C2=CC=C(C=C2)Cl)N)C3=NC=NC4=C3C=CN4 [AZD5363]; conditions: max 10 µM
Procedure, shortened: as §1

Paclitaxel = compound: CC(=O)O[C@H]1C(=O)[C@@]2(C)[C@H]([C@H](OC(=O)c3ccccc3)[C@]3(O)C[C@H](OC(=O)[C@H](O)[C@@H](NC(=O)c4ccccc4)c4ccccc4)C(C)=C1C3(C)C)[C@]1(OC(C)=O)CO[C@@H]1C[C@@H]2O [Paclitaxel]; conditions: max 3 µM
Procedure, shortened: as §1

Etoposide = compound: COc1cc([C@@H]2c3cc4c(cc3[C@@H](O[C@@H]3O[C@@H]5CO[C@@H](C)O[C@H]5[C@H](O)[C@H]3O)[C@H]3COC(=O)[C@H]23)OCO4)cc(OC)c1O [Etoposide]; conditions: max 10 µM
Procedure, shortened: as §1

SRA737 = compound: N#Cc1cnc(Nc2cc(NC[C@H]3CNCCO3)c(C(F)(F)F)cn2)cn1 [SRA737]; conditions: max 10 µM
Procedure, shortened: as §1

MK-2206 = compound: NC1(c2ccc(-c3nc4ccn5c(=O)[nH]nc5c4cc3-c3ccccc3)cc2)CCC1 [MK-2206]; conditions: max 10 µM
Procedure, shortened: as §1

Gemcitabine = compound: Nc1ccn([C@@H]2O[C@H](CO)[C@@H](O)C2(F)F)c(=O)n1 [Gemcitabine]; conditions: max 0.3 µM
Procedure, shortened: as §1

[1] = compound: O=C(Nc1ccc2[nH]nc(-c3ccncc3)c2c1)[C@@H]1CCN(CC(=O)N2CCN(c3ccc(-c4ncccn4)cc3)CC2)C1; conditions: max 5 µM
Procedure, shortened: as §1

5-Fluorouracil = compound: O=c1[nH]cc(F)c(=O)[nH]1 [5-Fluorouracil]; conditions: max 20 µM
Procedure, shortened: as §1

Row | Cell Line | IC50, cell viability 72 h (Capivasertib) | IC50, cell viability 72 h (AZD1775) | IC50, cell viability 72 h (Trametinib) | IC50, cell viability 72 h (Palbociclib) | IC50, cell viability 72 h (AZD1390) | IC50, cell viability 72 h (Venetoclax) | IC50, cell viability 72 h (Dasatinib) | IC50, cell viability 72 h (SG3199) | IC50, cell viability 72 h (AZD2811) | IC50, cell viability 72 h (SN-38) | IC50, cell viability 72 h (AZD0156) | IC50, cell viability 72 h (AZD4320) | IC50, cell viability 72 h (Alisertib) | IC50, cell viability 72 h (Gefitinib) | IC50, cell viability 72 h (Prexasertib) | IC50, cell viability 72 h (Doxorubicin) | IC50, cell viability 72 h (AZD5153) | IC50, cell viability 72 h (Lapatinib) | IC50, cell viability 72 h (AZD8186; max 3 µM) | IC50, cell viability 72 h (Crizotinib) | IC50, cell viability 72 h (Savolitinib) | IC50, cell viability 72 h (AZD6738) | IC50, cell viability 72 h (AZD5991) | IC50, cell viability 72 h (AZD7648) | IC50, cell viability 72 h (Taselisib) | IC50, cell viability 72 h (Selumetinib) | IC50, cell viability 72 h (Olaparib) | IC50, cell viability 72 h (Carboplatin) | IC50, cell viability 72 h (AZD5363) | IC50, cell viability 72 h (Paclitaxel) | IC50, cell viability 72 h (Etoposide) | IC50, cell viability 72 h (AZD8186; max 10 µM) | IC50, cell viability 72 h (SRA737) | IC50, cell viability 72 h (MK-2206) | IC50, cell viability 72 h (Gemcitabine) | IC50, cell viability 72 h [1] | IC50, cell viability 72 h (5-Fluorouracil)
1 | OACM5-1 (Esophageal Adenocarcinoma) | 1990 nM | 2550 nM | > 1000 nM | 6860 nM | > 300 nM | > 1000 nM | > 2000 nM | > 1 nM | > 1000 nM | 46.4 nM | > 3000 nM | > 1000 nM | 3850 nM | > 10000 nM | 134 nM | 615 nM | 391 nM | 8070 nM | > 3000 nM | 4400 nM | > 1000 nM | 9880 nM | 58.2 nM | > 10000 nM | 418 nM | > 10000 nM | > 10000 nM |  |  |  |  |  |  |  |  |  | 
2 | SW982 (Other Solid Carcinomas) |  | 1140 nM | 702 nM | 4390 nM | > 300 nM | > 1000 nM | 68 nM | > 1 nM | 444 nM | 9.38 nM | > 3000 nM | > 1000 nM | 1040 nM | > 10000 nM | 91.3 nM | 80.4 nM | 63.3 nM | > 10000 nM |  | 3590 nM | > 1000 nM | 5530 nM | > 1000 nM | > 10000 nM | 2620 nM | > 10000 nM | > 10000 nM | > 10000 nM | > 10000 nM | 6.45 nM | 789 nM | 4650 nM | > 10000 nM | > 10000 nM | 13.6 nM | 2850 nM | 11300 nM
